Counter-ions that a name gives are not always drawn. Like-named read-outs stand apart in the source and are kept apart here.
Legend:
[1] = tested on: IL-6 cytokine output from THP-1s; test: THP-1 AlphaLISA IL-6 cytokine inhibition assay; assay type: cell-based; settings: Homo sapiens, LPS then nigericin
Method: The cytokine inhibition profiles of compounds of formula (I) were determined in a differentiated THP-1 cell assay. All assays were performed in RPMI-1640 growth medium (Gibco), supplemented with 10% fetal bovine serum (FBS; Gibco), 1% penicillin-streptomycin and 1% sodium pyruvate unless specified otherwise. The IL-1β cytokine inhibition assay was run in a background of differentiated THP-1 cells as described below. All reagents described were from Sigma-Aldrich unless specified otherwise. Compounds were prepared as 10 mM DMSO stocks.
THP-1 cells were expanded as a suspension up to 80% confluence in appropriate growth medium. Cells were harvested, suspended, and treated with an appropriate concentration of phorbol 12-myristate 13-acetate (PMA) over a 72 hr period (37° C./5% CO2).
Following 72 hrs of THP-1 cell incubation, cellular medium was removed and replaced with fresh growth media containing 1% of FBS. Working concentrations of compounds were prepared separately in 10% FBS treated growth medium and pre-incubated with the cells for 30 minutes (37° C./5% CO2). Following the 30 minute compound pre-incubation, THP-1s were treated with an appropriate concentration of LPS and the cells were subsequently incubated for a 24 hr period (37° C./5% CO2). An appropriate final concentration of Nigericin was then dispensed into the THP-1 plates and incubated for 1 hour (37° C./5% CO2) before THP-1 supernatants were harvested and collected in separate polypropylene 96-well holding plates.
Reagents from an IL-1β and IL-6 commercial kit (Perkin Elmer) were prepared and run according to the manufacturer's instructions. Subsequently, fluorescence signal detection in a microplate reader was measured (EnVision® Multilabel Reader, Perkin Elmer).
Percentage inhibition was calculated per cytokine by normalising the sample data to the high and low controls used within each plate (+/− LPS respectively).

[2] = Hepatocyte stability assay, mouse; assay type: in vitro ADME; settings: mouse, hepatocytes
Method in brief: (§1)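 Cryopreserved hepatocytes (viability >70%), 0.5×10^6 cells/mL in Leibovitz buffer, preincubated 10 min at 37° C, then 10 μM compound (0.1% DMSO) in duplicate; sampled 0-60 min, acetonitrile quench, LC-MS/MS. CLint and half-life from ln % remaining vs time; buffer-only incubation as negative control.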

[3] = tested on: IL-1β cytokine output from THP-1s; test: THP-1 AlphaLISA IL-1β cytokine inhibition assay; assay type: cell-based; settings: for IC50: Homo sapiens; for IL-1β lowering, result in words: THP-1 IL-1β assay
Method in brief: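 THP-1 cells differentiated with PMA for 72 h, pre-incubated with compound 30 min, then LPS-primed 24 h and Nigericin-stimulated 1 h (37° C./5% CO2). Supernatant IL-1β measured by AlphaLISA; percentage inhibition normalised to +LPS (high) and −LPS (low) plate controls.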

[4] = Hepatocyte stability assay, human; assay type: in vitro ADME; settings: human, hepatocytes
Method in brief: as §1

[5] = tested on: NRF2 (nuclear factor erythroid 2-related factor 2); test: NRF2 +/-GSH activation assay (DiscoverX PathHunter NRF2 translocation kit, U2OS cells); assay type: cell-based
Method in brief: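 U2OS PathHunter eXpress cells, 24 h post-plating, treated with compound ±GSH (+GSH arm: 30 min compound–GSH pre-incubation, 6 mM working GSH), then 6 h at 37 °C. NRF2 nuclear translocation read by enzyme-fragment-complementation chemiluminescence; % activation normalised to DMF high and untreated low controls.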

[6] = THP-1, differentiated THP-1 cells
[7] = THP-1, differentiated THP-1 cells, LPS then nigericin
[8] = +GSH, 30 minute compound-GSH pre-incubation, read-out: NRF2 activation +GSH EC50
[9] = +GSH, normalised to DMF high control
[10] = −GSH, U2OS PathHunter cells, 6 hours compound treatment, read-out: NRF2 activation −GSH EC50
[11] = −GSH, normalised to DMF high control

| IC50 ([1]; differentiated THP-1 cells) | EC50 ([5]; −GSH, Table 5 exo vs endo comparison, read-out: −GSH EC50) | IC50 ([3]; THP-1, Table 3, head to head comparison of exo vs endo double bond compounds) | Structure (SMILES) | IC50 [1, 6] | hepatocyte CLint at 10 μM ([2]; Hepatocyte stability Clint) | half-life at 10 μM ([2]; Hepatocyte stability T½) | IC50 [3, 7] | hepatocyte CLint at 10 μM ([4]; Hepatocyte stability Clint) | half-life at 10 μM ([4]; Hepatocyte stability T½) | EC50 [5, 8] | NRF2 activation +GSH Emax [5, 9] | EC50 [5, 10] | NRF2 activation −GSH Emax [5, 11] | IL-1β lowering, result in words [3] | −GSH Emax ([5]; −GSH, normalised to DMF high control, Table 5 exo vs endo comparison) |
| --- | --- | --- | --- | --- | --- | --- | --- | --- | --- | --- | --- | --- | --- | --- | --- |
|  |  |  | C=C(Cc1nc(C2(c3ccc(OC(F)(F)C(F)F)cc3)CC2)no1)C(=O)O [Example 82, 2-((3-(1-(4-(1,1,2,2-tetrafluoroethoxy)phenyl)cyclopropyl)-1,2,4-oxadiazol-5-yl)methyl)acrylic acid] | 20.7 µM | 30 µL/min/1e6 cells | 58 min | 14.5 µM | < 3 µL/min/1e6 cells | > 460 min |  |  |  |  |  |  |
|  |  |  | C=C(Cc1nc(-c2ccc(C(F)(F)CC)cc2)no1)C(=O)O [Example 71, 2-((3-(4-(1,1-difluoropropyl)phenyl)-1,2,4-oxadiazol-5-yl)methyl)acrylic acid] | 8.3 µM |  |  | 54.9 µM |  |  | 37.1 µM | 146% | 28.8 µM | 178% |  |  |
| 32.4 µM |  |  | C=C(Cc1nc(C2(c3ccc(C)c(Cl)c3)CC2)no1)C(=O)O [Example 141, 2-((3-(1-(3-chloro-4-methylphenyl)cyclopropyl)-1,2,4-oxadiazol-5-yl)methyl)acrylic acid] |  |  |  | > 56.2 µM |  |  | 20.1 µM | 100% | 16.7 µM | 177% |  |  |
| > 100 µM |  |  | C=C(C(=O)O)C(C)c1nc(C2(c3ccc(C(F)(F)F)cc3)CC2)no1 (centres unmarked) [Example 174, 2-methylene-3-(3-(1-(4-(trifluoromethyl)phenyl)cyclopropyl)-1,2,4-oxadiazol-5-yl)butanoic acid] |  |  |  | 4.2 µM |  |  | > 100 µM | 1.8% | > 100 µM | 24% |  |  |
|  |  |  | C=C(Cc1nc(CCCCCC(F)(F)CC(F)(F)F)no1)C(=O)O [Example 87, 2-((3-(6,6,8,8,8-pentafluorooctyl)-1,2,4-oxadiazol-5-yl)methyl)acrylic acid] | 31.7 µM |  |  | > 100 µM |  |  | 48.6 µM | 70% | 41.4 µM | 95% | not effective |  |
|  |  |  | C=C(Cc1nc(CCCCCCCC(F)F)no1)C(=O)O [Example 58, 2-((3-(8,8-difluorooctyl)-1,2,4-oxadiazol-5-yl)methyl)acrylic acid] | 16 µM |  |  | 36.9 µM |  |  | 30.6 µM | 105% | 26.4 µM | 149% |  |  |
|  |  |  | C=C(Cc1nc(CCc2ccc(CC)cc2)no1)C(=O)O [Example 41, 2-((3-(4-ethylphenethyl)-1,2,4-oxadiazol-5-yl)methyl)acrylic acid] | 22.5 µM |  |  | 45.4 µM |  |  | 39.7 µM | 103% | 31.7 µM | 135% |  |  |
| 67.5 µM |  |  | C=C(C(=O)O)C(C)(C)c1nc(C2(c3ccc(C(F)(F)F)cc3)CC2)no1 [Example 172] |  |  |  | 5.1 µM |  |  | > 100 µM | 7.6% | > 100 µM | 0% |  |  |
| 20.2 µM | > 100 µM | > 31.6 µM | C/C(=C\c1nc(C2(c3ccc(S(F)(F)(F)(F)F)cc3)CC2)no1)C(=O)O [Example 169] |  |  |  | > 31.6 µM |  |  | > 100 µM | 15.4% | > 100 µM | 43% |  | 43% |
|  |  |  | C=C(Cc1ncc(CCCCCCCC)s1)C(=O)O [Example 55, 2-((5-octylthiazol-2-yl)methyl)acrylic acid] | 4.2 µM |  |  | 14.9 µM |  |  | 17.8 µM | 163% | 13.3 µM | 276% |  |  |
| 55.9 µM |  |  | C=C(C(=O)O)C1(c2nc(C3(c4ccc(C(F)(F)F)cc4)CC3)no2)CC1 [Example 156, 2-(1-(3-(1-(4-(trifluoromethyl)phenyl)cyclopropyl)-1,2,4-oxadiazol-5-yl)cyclopropyl)acrylic acid] |  |  |  | 5.3 µM |  |  |  | −16.4% | > 100 µM | 0% |  |  |
|  |  |  | C=C(Cc1cccc(Cc2ccc(Cl)cc2)n1)C(=O)O [Example 171, 2-((6-(4-chlorobenzyl)pyridin-2-yl)methyl)acrylic acid trifluoroacetic acid salt] | > 100 µM |  |  | > 100 µM |  |  | > 100 µM | 0% | > 100 µM | 5% |  |  |
|  |  |  | C=C(Cc1nc(CC2CCCCC2)no1)C(=O)O [Example 32, 2-((3-(cyclohexylmethyl)-1,2,4-oxadiazol-5-yl)methyl)acrylic acid] | > 100 µM |  |  | > 100 µM |  |  | > 100 µM | 35% | 50.1 µM | 46% | not effective |  |
|  |  |  | C=C(Cc1nc(C(C)(C)c2ccc(Cl)cc2)no1)C(=O)O [Example 30, 2-((3-(2-(4-chlorophenyl)propan-2-yl)-1,2,4-oxadiazol-5-yl)methyl)acrylic acid] | > 100 µM |  |  | 53.3 µM |  |  | > 100 µM | 12% | > 100 µM | 36% | not effective |  |
| > 100 µM |  |  | C=C(C(=O)O)C1(c2nc(C(F)(F)c3ccc(C(F)(F)F)cc3)no2)CC1 [Example 173, 2-(1-(3-(difluoro(4-(trifluoromethyl)phenyl)methyl)-1,2,4-oxadiazol-5-yl)cyclopropyl)acrylic acid] |  |  |  | 7.6 µM |  |  | 61.1 µM | 2.1% | 52.5 µM | 64% |  |  |
| 39.3 µM |  |  | C=C(Cc1ncc(CCCCCCCC)cn1)C(=O)O [Example 106] |  |  |  | 67.8 µM |  |  | 24.6 µM | 101% | 18.6 µM | 143% |  |  |
|  |  |  | C=C(Cc1nc(CCC#CCCCC)no1)C(=O)O [Example 57, 2-((3-(oct-3-yn-1-yl)-1,2,4-oxadiazol-5-yl)methyl)acrylic acid] | 24.1 µM |  |  | > 100 µM |  |  | 49.9 µM | 56% | 41.1 µM | 102% | not effective |  |
| 7.6 µM |  |  | C=C(Cc1nc(C2(c3cc(Cl)c(Br)c(Cl)c3)CC2)no1)C(=O)O [Example 176, 2-((3-(1-(4-bromo-3,5-dichlorophenyl)cyclopropyl)-1,2,4-oxadiazol-5-yl)methyl)acrylic acid] |  |  |  | 3.2 µM |  |  |  |  | 5.4 µM | 222% |  |  |
|  |  |  | C=C(Cc1nc(Cc2ccc(C3(C(F)(F)F)CC3)cc2)no1)C(=O)O [Example 48, 2-((3-(4-(1-(trifluoromethyl)cyclopropyl)benzyl)-1,2,4-oxadiazol-5-yl)methyl)acrylic acid] | 38.5 µM |  |  | 40.2 µM |  |  | 50.3 µM | 61% | 31 µM | 120% |  |  |
|  |  |  | C#CCCCCCCc1noc(CC(=C)C(=O)O)n1 [Example 35, 2-((3-(oct-7-yn-1-yl)-1,2,4-oxadiazol-5-yl)methyl)acrylic acid] | 34.6 µM |  |  | > 100 µM |  |  | 48.9 µM | 55% | 43.6 µM | 91% | not effective |  |

Reference: patent publication US12617762B2, “Carboxy derivatives with antiinflamatory properties” (Sitryx Therapeutics Limited, priority 2019, dated 2026)
